Results published in patent publication US20050250137A1, “Molecular targets of cancer and aging” (priority 2002, published 2005).

System: LFS cells
Assay: poly (I:C) stimulation of LFS cells, STAT1α and IFNβ gene expression
Type: cell-based, human
Settings: poly (I:C) treatment

## poly (I:C)
MDAH041-PC
  STAT1α and IFNβ gene expression: induced
MDAH087-1
  STAT1α and IFNβ gene expression: no induction
MDAH087-10
  STAT1α and IFNβ gene expression: no induction
MDAH087-N
  STAT1α and IFNβ gene expression: induced
MDAH087-PC
  STAT1α and IFNβ gene expression: induced
Immortal MDAH041
  STAT1α and IFNβ gene expression: induced
